In paper PMC3463134 (Chembiochem : a European journal of chemical biology, 2012) one finds NADPH oxidation assay, Km and kcat data, which are given here for 3 molecules.

As usually defined, the Km is the substrate concentration at which the rate is half of its maximum. Broadly, the kcat is the number of substrate molecules converted per active site and unit of time at saturation.

The target of one series is T1, KtzI (Kutzneria sp. 744, UniProt A8CF85).
T1 sequence (A8CF85 1-424): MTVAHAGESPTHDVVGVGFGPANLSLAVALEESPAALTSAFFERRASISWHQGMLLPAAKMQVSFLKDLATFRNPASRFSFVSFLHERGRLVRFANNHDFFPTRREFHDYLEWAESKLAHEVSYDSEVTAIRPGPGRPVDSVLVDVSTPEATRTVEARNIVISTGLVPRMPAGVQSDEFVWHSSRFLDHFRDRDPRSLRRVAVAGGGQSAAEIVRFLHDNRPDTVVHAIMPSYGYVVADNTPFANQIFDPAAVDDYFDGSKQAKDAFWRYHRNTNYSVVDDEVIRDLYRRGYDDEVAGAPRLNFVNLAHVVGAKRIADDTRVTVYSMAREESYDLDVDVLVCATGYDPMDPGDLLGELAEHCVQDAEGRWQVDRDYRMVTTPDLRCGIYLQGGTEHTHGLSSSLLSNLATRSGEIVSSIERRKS
As to the kind of experiment: NADPH oxidation assay. The format is biochemical. The conditions noted are these: FAD, non-substrate effector (uncoupled NADPH oxidation).

Substrate in the series “purified protein”: NCCC[C@H](N)C(=O)O
As to the kind of experiment: purified protein. The following applies: FAD cofactor; NAD(P)H and O2 cosubstrates; apparent kcat.

In the case of `NCCCC[C@H](N)C(=O)O` [L-Lys], the NADPH oxidation assay entry at KtzI was “L-Lys and D-Orn were observed to be non-substrate effectors of the enzyme”. The same measure, in the same setting: with `NCCC[C@@H](N)C(=O)O` [D-Orn] the entry was “L-Lys and D-Orn were observed to be non-substrate effectors of the enzyme”.

B1: KtzI (Kutzneria sp. 744) (protein)
chain: T1 sequence (A8CF85 1-424)
Consider B1, for which, in “purified protein”, the Km turned out to be 0.091 ± 0.008 mM and the kcat was 6.96 ± 0.13 min⁻¹.
